Experimental data reported in publication PMC7176092, “Development of the first in vivo GPR17 ligand through an iterative drug discovery pipeline: A novel disease-modifying strategy for multiple sclerosis” (PLoS ONE, 2020).
Values joined by “and” are separate entries in the source; they are usually repeats but may differ in a detail not shown here. Identical values can stand only once. Like-named read-outs stand apart in the source and are kept apart here.

Key:
CCR10 = biological target: T1, CCR10 (Homo sapiens, UniProt P46092); experiment: Cellular functional assay CCR10
T1 sequence (P46092 1-362): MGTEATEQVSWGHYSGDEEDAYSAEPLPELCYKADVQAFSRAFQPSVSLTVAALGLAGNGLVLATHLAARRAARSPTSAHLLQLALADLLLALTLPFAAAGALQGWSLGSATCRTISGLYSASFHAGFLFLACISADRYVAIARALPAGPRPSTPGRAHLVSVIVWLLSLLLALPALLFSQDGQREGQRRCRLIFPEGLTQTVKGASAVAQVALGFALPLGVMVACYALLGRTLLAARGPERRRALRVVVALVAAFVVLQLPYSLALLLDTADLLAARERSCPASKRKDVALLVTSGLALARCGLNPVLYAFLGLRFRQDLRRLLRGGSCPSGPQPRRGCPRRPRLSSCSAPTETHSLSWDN

CCR5 = CCR5 (Homo sapiens, UniProt P51681); experiment: Cellular functional assay CCR5
CCR4 = biological target: T2, CCR4 (Homo sapiens, UniProt P51679); experiment: Cellular functional assay CCR4
T2 sequence (P51679 1-360): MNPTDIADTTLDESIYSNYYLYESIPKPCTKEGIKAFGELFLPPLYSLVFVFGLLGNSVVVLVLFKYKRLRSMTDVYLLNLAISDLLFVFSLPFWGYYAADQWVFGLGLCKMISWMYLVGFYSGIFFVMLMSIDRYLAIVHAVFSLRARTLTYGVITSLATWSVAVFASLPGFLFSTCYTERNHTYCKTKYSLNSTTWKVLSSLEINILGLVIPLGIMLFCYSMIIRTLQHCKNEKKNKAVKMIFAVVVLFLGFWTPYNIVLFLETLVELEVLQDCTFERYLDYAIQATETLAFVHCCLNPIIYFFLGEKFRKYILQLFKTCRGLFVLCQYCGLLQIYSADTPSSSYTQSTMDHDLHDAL

CysLT1 = biological target: T3, CysLT1 (Homo sapiens, UniProt Q9Y271); experiment: Binding assay CysLT1; settings: 100 nM
T3 construct: Eurofins Cerep (external service)
T3 sequence (Q9Y271 1-337): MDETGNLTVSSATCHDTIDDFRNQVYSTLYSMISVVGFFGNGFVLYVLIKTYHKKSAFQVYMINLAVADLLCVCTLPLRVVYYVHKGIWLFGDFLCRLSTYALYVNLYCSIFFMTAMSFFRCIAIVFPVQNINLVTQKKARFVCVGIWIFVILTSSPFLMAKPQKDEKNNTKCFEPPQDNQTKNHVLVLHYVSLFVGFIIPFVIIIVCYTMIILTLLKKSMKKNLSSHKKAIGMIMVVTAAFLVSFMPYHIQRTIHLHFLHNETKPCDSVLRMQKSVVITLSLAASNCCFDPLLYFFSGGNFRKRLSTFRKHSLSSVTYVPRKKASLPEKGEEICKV

CXCR5 = biological target: T4, CXCR5 (Homo sapiens, UniProt P32302); experiment: Cellular functional assay CXCR5
T4 sequence (P32302 1-372): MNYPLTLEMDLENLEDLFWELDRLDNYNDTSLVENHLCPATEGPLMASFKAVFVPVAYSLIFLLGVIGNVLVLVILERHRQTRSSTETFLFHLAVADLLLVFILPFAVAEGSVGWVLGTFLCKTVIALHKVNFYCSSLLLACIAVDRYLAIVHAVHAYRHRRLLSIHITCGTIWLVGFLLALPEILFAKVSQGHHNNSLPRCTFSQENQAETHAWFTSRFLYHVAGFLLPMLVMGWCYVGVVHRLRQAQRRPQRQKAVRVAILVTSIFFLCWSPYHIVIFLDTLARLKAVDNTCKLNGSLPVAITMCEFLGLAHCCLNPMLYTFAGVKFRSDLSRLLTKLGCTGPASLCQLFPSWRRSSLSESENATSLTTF

mGluR1 = biological target: T5, mGluR1 (Homo sapiens, UniProt Q13255); experiment: Binding assay mGluR1; settings: 100 nM
T5 construct: Eurofins Cerep (external service)

CX3CR1 = biological target: T6, CX3CR1 (Homo sapiens, UniProt P49238); experiment: Cellular functional assay CX3CR1
T6 sequence (P49238 1-355): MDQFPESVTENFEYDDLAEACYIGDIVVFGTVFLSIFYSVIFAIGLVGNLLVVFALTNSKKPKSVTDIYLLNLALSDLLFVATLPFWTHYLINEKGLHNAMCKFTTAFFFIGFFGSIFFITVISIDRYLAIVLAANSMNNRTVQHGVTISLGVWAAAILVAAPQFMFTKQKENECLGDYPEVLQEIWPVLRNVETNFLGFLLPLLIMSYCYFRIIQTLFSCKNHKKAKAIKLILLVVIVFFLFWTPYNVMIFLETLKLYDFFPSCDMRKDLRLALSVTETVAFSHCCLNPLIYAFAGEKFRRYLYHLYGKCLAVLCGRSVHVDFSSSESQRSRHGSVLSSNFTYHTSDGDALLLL

CCR3 = biological target: T7, CCR3 (Homo sapiens, UniProt P51677); experiment: Cellular functional assay CCR3
T7 sequence (P51677 1-355): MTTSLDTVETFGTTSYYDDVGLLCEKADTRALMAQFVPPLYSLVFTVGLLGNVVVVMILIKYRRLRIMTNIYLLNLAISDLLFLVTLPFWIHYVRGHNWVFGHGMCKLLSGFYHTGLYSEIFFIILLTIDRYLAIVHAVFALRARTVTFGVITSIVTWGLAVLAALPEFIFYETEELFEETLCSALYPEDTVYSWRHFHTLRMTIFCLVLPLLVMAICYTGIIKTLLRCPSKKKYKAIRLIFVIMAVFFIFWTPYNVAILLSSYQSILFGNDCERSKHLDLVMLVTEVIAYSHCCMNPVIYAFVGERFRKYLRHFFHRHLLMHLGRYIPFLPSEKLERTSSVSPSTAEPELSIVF

[1] = antagonist effect, 100 nM, single replicates 1st and 2nd, 0.1 µM
[2] = read-out: % Inhibition of control agonist response
[3] = read-out: Agonist Response (% of Control), Mean, antagonist effect, 100 nM, mean of 2
[4] = read-out: Agonist Response (% of Control), antagonist effect, 100 nM, single replicates 1st and 2nd
[5] = mean of 2, read-out: % Of control specific binding, Mean
[6] = read-out: % Inhibition of control specific binding
[7] = single replicates 1 and 2, 0.1 µM

T5 sequence (Q13255 19-1194): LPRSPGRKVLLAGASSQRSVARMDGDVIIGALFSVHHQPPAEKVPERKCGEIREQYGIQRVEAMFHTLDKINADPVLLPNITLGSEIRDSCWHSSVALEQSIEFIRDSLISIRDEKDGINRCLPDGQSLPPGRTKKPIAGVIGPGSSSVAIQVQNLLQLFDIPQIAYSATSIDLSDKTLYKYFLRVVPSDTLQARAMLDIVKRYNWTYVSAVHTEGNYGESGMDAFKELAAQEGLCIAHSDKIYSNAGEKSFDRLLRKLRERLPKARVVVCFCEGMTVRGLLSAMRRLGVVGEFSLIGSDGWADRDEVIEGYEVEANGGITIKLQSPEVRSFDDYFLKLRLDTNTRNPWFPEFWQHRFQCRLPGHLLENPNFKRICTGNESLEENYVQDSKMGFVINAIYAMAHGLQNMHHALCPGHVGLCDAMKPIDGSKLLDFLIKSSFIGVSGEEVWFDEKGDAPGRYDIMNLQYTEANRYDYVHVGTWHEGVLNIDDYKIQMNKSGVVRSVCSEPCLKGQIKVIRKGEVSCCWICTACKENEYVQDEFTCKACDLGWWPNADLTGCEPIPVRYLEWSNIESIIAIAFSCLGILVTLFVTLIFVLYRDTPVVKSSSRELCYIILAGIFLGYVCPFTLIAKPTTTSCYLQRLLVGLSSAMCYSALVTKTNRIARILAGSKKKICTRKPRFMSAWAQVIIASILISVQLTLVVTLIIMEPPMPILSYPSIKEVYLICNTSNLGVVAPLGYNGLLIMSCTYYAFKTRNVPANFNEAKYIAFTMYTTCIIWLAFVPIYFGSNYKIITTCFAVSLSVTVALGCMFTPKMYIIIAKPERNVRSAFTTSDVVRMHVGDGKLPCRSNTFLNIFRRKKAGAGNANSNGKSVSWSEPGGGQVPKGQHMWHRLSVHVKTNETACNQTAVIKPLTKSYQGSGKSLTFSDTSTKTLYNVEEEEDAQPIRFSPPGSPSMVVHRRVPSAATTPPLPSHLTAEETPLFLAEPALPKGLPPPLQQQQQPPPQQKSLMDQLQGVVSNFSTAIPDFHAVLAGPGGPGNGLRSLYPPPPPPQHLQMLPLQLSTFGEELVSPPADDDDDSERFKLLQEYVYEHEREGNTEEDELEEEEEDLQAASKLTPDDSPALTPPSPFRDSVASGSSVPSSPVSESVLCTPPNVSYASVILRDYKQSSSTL
CCR5, sequence (P51681 whole entry): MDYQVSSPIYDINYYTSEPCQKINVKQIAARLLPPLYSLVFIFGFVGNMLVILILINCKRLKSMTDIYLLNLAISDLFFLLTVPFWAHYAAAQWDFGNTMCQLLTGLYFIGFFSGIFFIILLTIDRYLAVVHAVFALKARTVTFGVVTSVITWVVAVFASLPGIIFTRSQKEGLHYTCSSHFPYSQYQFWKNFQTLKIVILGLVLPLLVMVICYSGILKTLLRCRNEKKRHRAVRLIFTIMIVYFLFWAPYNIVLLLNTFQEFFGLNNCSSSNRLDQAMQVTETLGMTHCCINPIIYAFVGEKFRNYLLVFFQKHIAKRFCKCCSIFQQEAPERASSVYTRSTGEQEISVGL

Cc1ccc(-c2nnc(SCC(=O)Nc3nccs3)[nH]2)cc1 [Compound 9]
Agonist Response (% of Control) (CCR10; [1]): 90.0%
inhibition at 0.1 µM (CCR10; [2]): -0.9%
activity at 0.1 µM (CCR10; [3]): 87.7%
activity at 0.1 µM (CCR10; [4]): 85.4%
inhibition at 0.1 µM (CCR5; CCR5, read-out: % Inhibition of control agonist response): -1.5%
activity at 0.1 µM (CCR5; CCR5, read-out: Agonist Response (% of Control), Mean, antagonist effect, 100 nM, mean of 2): 126%
Agonist Response (% of Control) (CCR5; [1]): 140.8% and 112.0%
Agonist Response (% of Control) (CCR4; [1]): 60.7% and 88.2%
inhibition at 0.1 µM (CCR4; [2]): -0.1%
activity at 0.1 µM (CCR4; [3]): 74.4%
remaining activity at 0.1 µM (CysLT1; [5]): 97.6%
inhibition at 0.1 µM (CysLT1; [6]): 2%
% Of control specific binding (CysLT1; [7]): 105.4%
remaining activity at 0.1 µM (CysLT1; single replicates 1 and 2, read-out: % Of control specific binding): 89.7%
Agonist Response (% of Control) (CXCR5; [1]): 99.7%
inhibition at 0.1 µM (CXCR5; [2]): 1.2%
activity at 0.1 µM (CXCR5; [3]): 102%
activity at 0.1 µM (CXCR5; [4]): 103%
remaining activity at 0.1 µM (mGluR1; [5]): 114%
inhibition at 0.1 µM (mGluR1; [6]): -14%
% Of control specific binding (mGluR1; [7]): 103.5% and 124.2%
Agonist Response (% of Control) (CX3CR1; [1]): 105.4%
inhibition at 0.1 µM (CX3CR1; [2]): 0.2%
activity at 0.1 µM (CX3CR1; [3]): 107%
activity at 0.1 µM (CX3CR1; [4]): 110%
Agonist Response (% of Control) (CCR3; [1]): 121.2%
inhibition at 0.1 µM (CCR3; [2]): -0.9%
activity at 0.1 µM (CCR3; [3]): 118%
activity at 0.1 µM (CCR3; [4]): 116%
